This note sets out measurements from ChEMBL document CHEMBL1201862, “PubChem BioAssay data set” (2004).

Some test systems named below: A549; ACHN; CCRF-CEM; COLO 205; DU-145; HOP-92; Hs-578T; IGROV-1; KM12; LOX IMVI; MCF7; MDA-MB-435; MOLT-4; NCI-H226; NCI-H460; OVCAR-3; OVCAR-5; OVCAR-8; SK-MEL-5; U-251.
Common to all, as to assay: DTP human tumour cell line panel, 48 h

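Compound exposure: 48 hours, 5 concentrations, 96-well plates. GI50 marks 50% less growth.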 Calls of active or inactive are those of the source. Cut-off read from the data, not from the text of the source: active = GI50 up to about 1.1 µM and inactive = higher.

A word on the GI50: it is the concentration at which growth is held to half of that of the control. As for `O=[N+]([O-])c1ccc(N2CCC(CCCC3CCN(c4ccc([N+](=O)[O-])cc4[N+](=O)[O-])CC3)CC2)c([N+](=O)[O-])c1`, the GI50 with A549 was 16.4 µM (inactive); in the test with ACHN, 16.1 µM (inactive); in the test with CCRF-CEM it was 13.7 µM (inactive); in the test on COLO 205 it was 14.2 µM (inactive); in the test with DU-145, 21.7 µM (inactive); with HOP-92, 11 µM (inactive). Also, the GI50 is 34.8 µM (inactive) in the test with Hs-578T; 11.1 µM (inactive) in the test on IGROV-1; 16.7 µM (inactive) in the test with KM12; 14.8 µM (inactive) in the test with LOX IMVI; 14.2 µM (inactive) in the test with MCF7; 13.9 µM (inactive) in the test with MDA-MB-435. In addition, the GI50 with MOLT-4 was 23.3 µM (inactive); in the test on NCI-H226, 25.6 µM (inactive); with NCI-H460, 14.3 µM (inactive); in the test with OVCAR-3, 18 µM (inactive); in the test on OVCAR-5 it was 16.4 µM (inactive); in the test with OVCAR-8, 16.1 µM (inactive). For the same molecule, the results for the GI50 in the test on SK-MEL-5 and with U-251 were 15.1 µM (inactive) and 14.8 µM (inactive), respectively.
In the case of `CCCC(=O)Nc1cc(C(=O)N2C[C@@H]3C[C@]34C2=CC(=O)c2[nH]cc(C)c24)n(COC)c1`, the GI50 with A549 was 9.75 µM (inactive); with ACHN, 5.93 µM (inactive); in the test with CCRF-CEM it was 0.711 µM (active); in the test with COLO 205, 5.93 µM (inactive); in the test on DU-145, 2.54 µM (inactive); with HOP-92, 1.4 µM (inactive). In addition, the GI50 in the test with Hs-578T was 14.5 µM (inactive); in the test on IGROV-1, 6.52 µM (inactive); in the test on KM12, 8.85 µM (inactive); in the test on LOX IMVI, 2.62 µM (inactive); with MCF7, 1.36 µM (inactive); in the test with MDA-MB-435 it was 9.06 µM (inactive). Further, the GI50 was 0.807 µM (active) with MOLT-4; 11.2 µM (inactive) with NCI-H226; 6.64 µM (inactive) in the test on NCI-H460; 6.81 µM (inactive) with OVCAR-3; 34.4 µM (inactive) with OVCAR-5; 1.94 µM (inactive) in the test on OVCAR-8. For the same molecule, the results for the GI50 in the test with SK-MEL-5 and in the test with U-251 were 1.54 µM (inactive) and 3.17 µM (inactive), respectively.
For `CO/C=C(/C(=O)OC)c1ccccc1COc1cccc(C(F)(F)F)c1`, the GI50 with A549 is 2.91 µM (inactive); in the test with ACHN, 3.63 µM (inactive); with CCRF-CEM it was 0.489 µM (active); in the test on COLO 205, 6.61 µM (inactive); in the test on DU-145 it was 11.6 µM (inactive); in the test with HOP-92, 5.65 µM (inactive). The GI50 in the test on Hs-578T is 10.3 µM (inactive); with IGROV-1, 4.57 µM (inactive); in the test on KM12, 11.3 µM (inactive); with LOX IMVI, 1.16 µM (inactive); with MCF7, 5.35 µM (inactive); with MDA-MB-435, 1.01 µM (active). The GI50 with MOLT-4 is 1.01 µM (active); with NCI-H226 it was 1.89 µM (inactive); with NCI-H460, 1.22 µM (inactive); in the test with OVCAR-3, 10.2 µM (inactive); with OVCAR-5, > 100 µM (inactive); in the test on OVCAR-8, 8.69 µM (inactive). For the same molecule, the GI50 with SK-MEL-5 is 0.473 µM (active); with U-251, 3.22 µM (inactive).
Regarding `COC(=O)c1c(O)ccc2c1c1c(n2Cc2ccccc2OC)C(=O)c2ccccc2C1=O`, the GI50 was 5.64 µM (inactive) in the test on A549; 7.53 µM (inactive) with ACHN; 3.13 µM (inactive) in the test with CCRF-CEM; 1.83 µM (inactive) with COLO 205; 13.3 µM (inactive) in the test with DU-145; 3.78 µM (inactive) in the test with HOP-92. Also, the GI50 in the test with Hs-578T was 18 µM (inactive); in the test with IGROV-1, 12.6 µM (inactive); in the test with KM12 it was 9.75 µM (inactive); in the test with LOX IMVI, 10.6 µM (inactive); with MCF7, 6.34 µM (inactive); in the test on MDA-MB-435, 10.3 µM (inactive). For the same molecule, the GI50 was 0.0393 µM (active) in the test with MOLT-4; 15.3 µM (inactive) in the test with NCI-H226; 3.78 µM (inactive) in the test on NCI-H460; 10 µM (inactive) in the test on OVCAR-3; 21.1 µM (inactive) in the test with OVCAR-5; 4.42 µM (inactive) in the test with OVCAR-8. Also, the GI50 in the test with SK-MEL-5 is 13.1 µM (inactive); in the test with U-251, 11 µM (inactive).
On to `O=c1[nH]c2cc3cccnc3c(Cl)c2nc1CBr`, for which the GI50 in the test on A549 was 19.3 µM (inactive); with ACHN, 7.4 µM (inactive); in the test with CCRF-CEM, 5.79 µM (inactive); in the test with COLO 205, 13.8 µM (inactive); in the test with DU-145, 15.6 µM (inactive); with HOP-92, 14.1 µM (inactive). In addition, the GI50 with Hs-578T is 13.1 µM (inactive); in the test with IGROV-1, 2.92 µM (inactive); in the test with KM12, 15.5 µM (inactive); with LOX IMVI it was 13.9 µM (inactive); with MCF7 it was 10.1 µM (inactive); in the test on MDA-MB-435, 16 µM (inactive). Moreover, the GI50 with MOLT-4 was 8.97 µM (inactive); in the test with NCI-H226, 19.1 µM (inactive); in the test with NCI-H460, 19 µM (inactive); with OVCAR-3, 14.8 µM (inactive); in the test on OVCAR-5, 20.3 µM (inactive); in the test on OVCAR-8, 17.9 µM (inactive). The GI50 in the test on SK-MEL-5 is 17.5 µM (inactive); with U-251 it was 15.4 µM (inactive).
